This note sets out measurements from patent EP0142057A2, “Thiazoloquinazoline derivatives, their preparation and pharmaceutical compositions containing same” (F. HOFFMANN-LA ROCHE AG, priority 1983, dated 1985).

The target in one assay is T1, TXA2 synthase (Homo sapiens, UniProt P24557).
T1 construct: using microsomal fractions from human platelets as enzyme source; from tissue; host or cells: human platelets (microsomal fraction)
T1 sequence (P24557 1-533): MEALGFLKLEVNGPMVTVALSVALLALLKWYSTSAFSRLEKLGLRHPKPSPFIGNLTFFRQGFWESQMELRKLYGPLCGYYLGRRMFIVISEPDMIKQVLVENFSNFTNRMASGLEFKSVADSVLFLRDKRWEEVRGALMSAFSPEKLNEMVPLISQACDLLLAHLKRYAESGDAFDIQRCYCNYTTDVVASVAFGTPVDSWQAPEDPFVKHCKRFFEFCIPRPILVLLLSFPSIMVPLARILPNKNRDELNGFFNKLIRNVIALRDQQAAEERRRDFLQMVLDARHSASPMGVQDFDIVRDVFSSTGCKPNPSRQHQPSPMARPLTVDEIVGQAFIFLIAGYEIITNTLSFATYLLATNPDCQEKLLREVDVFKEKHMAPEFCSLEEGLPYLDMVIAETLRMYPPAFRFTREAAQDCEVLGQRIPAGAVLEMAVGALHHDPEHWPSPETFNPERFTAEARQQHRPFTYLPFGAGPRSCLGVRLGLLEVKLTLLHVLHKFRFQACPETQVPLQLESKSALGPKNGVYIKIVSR
In words: Thromboxane synthase inhibition, in vitro. It is filed as biochemical. Particulars: at 10^-7M; microsomal fractions from human platelets; read-out: TXA2Synthase Inhibition (% at 10^-7M). As for the experimental part: TXA2 synthase activity is measured by following the conversion of ^14C-prostaglandin endoperoxide (PGH2) to ^14C-thromboxane A2 (TXA2) using microsomal fractions from human platelets as enzyme source. In the aqueous incubation medium, the TXA2 decomposes rapidly into TXB2. The amount of TXA2 synthase is adjusted so that under the conditions of the assay approximately 80-90% of the substrate, PGH2, is converted to product in control tubes. To prepare ^14C-PGH2, ^14C-AA (50-60 mCi/mmole: Rose Chem.) is incubated with sheep seminal vesicular gland microsomes for 1.5 minutes at 37°C and then the ^14C-PGH2 is extracted with diethylether, purified on columns of Sephadex LH-20 or silicic acid, and stored in acetone at -70°C. Incubations are done as follows. Sufficient ^14C-PGH2 to yield a final substrate concentration of 10 µM (30,000 cpm) is added to the incubation tubes and then the acetone is removed under nitrogen. The tubes are placed in an ice bath and then 215 1 of ice cold phosphate buffered saline, 10 1 of ethanol (control) or of test drug in ethanol, and 25 1 of the microsomal suspension are added with mixing in that order as rapidly as possible. The tubes are incubated at 22°C for 2 minutes, the reaction is stopped and then the radioactive products and the uncoverted PGH2 are extracted and analyzed by thin layer chromatography. […] The amount of ^14C-PGH2 converted to products was used as a measure of TXA2 synthase activity. Inhibitors were tested initially at a final concentration of 100 µM. Results obtained with representative compounds of the present invention in this assay are summarized hereafter in Table I.

Assay [1] deals with vascular permeability in rat skin. Put plainly: Rat skin permeability, in vivo (LTE4-induced skin wheal). Set-up: species or system rats. Particulars: for Rat Skin Permeability % Inhibition (10mg/kg iv): Table II, LTE4 wheal; for reduction in the skin wheal size: 10 mg/kg i.v. As for the experimental part:
In this model the ability of LTE4 to increase vascular permeability in rat skin was utilized. Anesthetized rats, pretreated for 30 minutes with an antihistamine pyrilamine maleate, 50 mg/kg i.p. and a serotonin antagonist, methyl- […] maleate (4 mg/kg i.p.), were injected intradermally with a standard dose of LTE4 which gave a maximum wheal (in 0.05 ml saline). After introduction of test drug (at 10 mg/kg i.v.) the animals were immediately treated intravenously with Evans blue dye i.v. (0.5%) in the tail vein resulting in the formation of a skin wheal. Thirty minutes later the animals were sacrificed and the skin wheal size was measured. The average response in 5 animals (4 intradermal injections per animal) treated with test compound was compared to that obtained in a similar group of control animals to determine the percent inhibition by the drug.

The subject of assay [2] is Guinea Pig Bronchoconstriction. In words: Guinea pig bronchoconstriction, in vivo (leukotriene E4 challenge). As to conditions: for Guinea Pig Broncho-constriction % Inhibition (10 mg/kg i.v.): Table II; for Guinea Pig Broncho-constriction % Inhibition (10 mg/kg i.v.) / inhibition: leukotriene E4 challenge; for inhibition: 10 mg/kg, i.v.; for oral activity: orally 100 mg/kg, 2 hours prior to challenge with leukotriene E4. Set-up: species or system guinea pigs. As for the experimental part:
Male guinea pigs (Hostley strain) weighing 300 to 450 grams are anesthetized with urethane (2 g/kg) intraperitoneally and a polyethylene cannula is inserted into the jugular vein for intravenous drug administration. Tracheal pressure is recorded from a cannula inserted in the trachea and connected to a Statham pressure transducer. Respiration is paralyzed with succinyl choline (1.2 mg/kg, i.v.) and the animals are mechanically respirated (Howard rodent respirator) at 40 breaths/minute and 2.5 ml tidal volume. Two minutes thereafter, propranolol (0.1 mg/kg, i.v.) is administered. Five minutes later, the animals are pretreated intravenously for 30 seconds (at 10 mg/kg) with test drug or control vehicle. The animals are subsequently challenged with a maximally constrictory dose of leukotriene E4 also administered intravenously. The change (cm H20) between pre and peak ventilatory pressure readings is averaged for three control animals and five drug treated animals. The percent inhibition is calculated from the following formula: [formula]
For determination of oral activity spontaneously breathing animals are pretreated orally with drugs (100 mg/kg) for 2 hours (at 100 mg/kg) prior to challenge with leukotriene E4. […] When tested orally in this assay the two compounds of the invention were active. Results obtained with representative compounds of the present invention in this assay are summarized hereafter in Table II.

In assay [3] the test system is Rat Passive Cutaneous Anaphylaxis. In words: Passive cutaneous anaphylaxis (PCA) assay. Format: in vivo, rats. As to conditions: for ED50: Rattus norvegicus, po, doses administered orally, read-out: Rat PCA Test ID50. As for the experimental part:
Male Sprague-Dawley rats obtained from Charles River Breeding Laboratories were used in the PCA assay. Two methods were used to prepare serum IgE antibody which is specific for egg albumin. In the first method homocytotropic antibody was obtained by injecting 180 to 200 g rats with 1.0 mg of egg albumin (Difco Laboratories, Detroit, Michigan) intramuscularly and 6.4 x 10^10 organisms of Bordetella pertussis vaccine (Eli Lilly and Co., Indiana- polis, Ind.) intraperitoneally. Serum collected from each animal 18-20 days after sensitization was pooled, separated into 1 ml aliquots, and kept frozen until further use. In the second method, rats weighing 150-200 g were immunized by the intraperitoneal injection of 0.5 ml of Bordetella pertussis vaccine (Cannaught Laboratories, Willowdale, Toronto, Canada, 20 optical units/ml) and 100 μg of egg albumin (Nutritional Biochemicals Corp., Cleveland. Ohio). Sixteen days later, Nipostrongylus brasi- […] (3000 larvae/0.1 ml) was administered subcutaneously, and on the 21st day, 10 μg of egg albumin in 0.5 ml of normal saline was administered intraperitoneally. On the 30th day, blood samples were collected by heart puncture; the serum was separated by centrifugation and refrigerated overnight at 5°C. After a 24 hour period, the samples were assayed for antibody activity by the passive cutaneous anaphylaxis method. Those serum samples which produced an average wheal diameter of 3 mm or greater following an intradermal injection of 0.05 ml of a 1:50 dilution of serum in normal saline were pooled, divided into aliquots, and kept frozen until further use. […] The passive cutaneous anaphylaxis assay was carried out in rats weighing 190-220 g in a manner similar to that of Goose and Blair (J. Goose and A.M.J.N. Blair, Immunology, 16, 749 [1969]). Rat IgE antiovalbumin in serum was prepared as described above. The IgE antiserum was titered with normal saline so that injections of 0.05 ml produced skin wheal diameters which averaged 7 to 10 mm. After a 24 hour sensitization period, 1 ml of an aqueous solution containing a mixture of 8 mg of egg albumin (Nutritional Biochemical Corp.. Cleveland, Ohio) and 5 mg of Evans blue dye ([…] Chemical Co., Inc., Harriman, N.Y.) was administered intravenously to each rat. Forty minutes after challenge, each animal was sacrificed by cervical dislocation, and the dorsal skin was removed for examination. The long and short axes of the blued area were measured on the inner surface of the skin with a metric vernier caliper (VWR Scientific Division of Univar, Rochester, N.Y.), and the average diameter was determined for each reaction. […] The procedure was usually conducted on five animals in the control and each of the treatment groups. Statistical analysis of the test results was conduced by the Student's t test of control vs. various treatments. The ID50 and 95% limits were determined by a modification of the Berkson minimum logic chi square method (J. Berkson, J. Am. Stat. Assoc., 48, 565 [1953]).

The test system of assay [4] is vascular permeability in rat skin. In words: Rat skin permeability, in vivo (LTE4-induced skin wheal). Set-up: species or system rats. As to conditions: for oral activity: tested orally.

Structures are written as SMILES. Structures can show the parent of a compound that is named as a salt.

The inhibition is how much of the control response was suppressed. Regarding `CC(C)c1ccc2nc3sc(C(=O)NCCCCCCc4cccnc4)cn3c(=O)c2c1`, on TXA2 synthase, the inhibition at 0.1 µM was determined as 36%.
With `CC(C)c1ccc2nc3sc(C(=O)N(C)CCCCc4cccnc4)cn3c(=O)c2c1`, the “Rat Skin Permeability % Inhibition (10mg/kg iv)” value in assay [1] is 72%. In assay [2], the “Guinea Pig Broncho-constriction % Inhibition (10 mg/kg i.v.)” value was “Inactive”.
Regarding `CC(C)c1ccc2nc3sc(C(=O)NCCCCOc4cccnc4)cn3c(=O)c2c1`, at TXA2 synthase, the inhibition at 0.1 µM amounted to 30%.
Consider `CCC(C)c1ccc2nc3sc(C(=O)NCCN(CC)CC)cn3c(=O)c2c1` (centres unmarked), for which, in assay [3], the “Rat PCA Test (% Inhibition) 16 mg/kg ip” value was found to be 21%.
Take `CCN(CC)CCOC(=O)c1cn2c(=O)c3cc(OC)ccc3nc2s1`: in assay [3], the “Rat PCA Test (% Inhibition) 16 mg/kg ip” value is listed as 100%, the “Rat PCA Test (% Inhibition) 32 mg/kg po” value is reported as 100% and the ED50 was determined as 1.31 mg/kg.
As for `CCN(CC)CCNC(=O)c1cn2c(=O)c3cc(C(C)C)ccc3nc2s1`, in assay [3], the “Rat PCA Test (% Inhibition) 32 mg/kg po” value turned out to be 50%.
Consider `CCN(CC)CCNC(=O)c1cn2c(=O)c3cc(CC(C)C)ccc3nc2s1`, for which, in assay [3], the “Rat PCA Test (% Inhibition) 16 mg/kg ip” value came to 31%.
For `CCN(CC)CCNC(=O)c1cn2c(=O)c3cc(C(C)C)cc(C(C)C)c3nc2s1` [7,9-Bis(1-methylethyl)-N-[2-(diethylamino)ethyl] -5-oxo-5H--thiazolo[2,3-b]quinazoline-2-carboxamide hydrochloride], in assay [3], the “Rat PCA Test (% Inhibition) 16 mg/kg ip” value was found to be 31% and the “Rat PCA Test (% Inhibition) 32 mg/kg po” value is 27%.
As to `CCN(CC)CCOC(=O)c1cn2c(=O)c3cc(C(C)C)ccc3nc2s1` [7-(1-Methylethyl)-5-oxo-5H-thiazolo[2,3-b]quinazoline-2-carboxylic acid(2-diethylaminoethyl) ester hydrochloride], in assay [3], the “Rat PCA Test (% Inhibition) 16 mg/kg ip” value stood at 100%, the “Rat PCA Test (% Inhibition) 32 mg/kg po” value turned out to be 100% and the ED50 amounted to 0.45 mg/kg.
`CCCc1c(OCC(O)COc2ccc3c(=O)cc(C(=O)O)oc3c2CCC)ccc(C(C)=O)c1O` (stereo not drawn) [7-[3-(4-acetyl-3-hydroxy-2-propylphenoxy) -2-hydroxypropoxy]-4-oxo-8-propyl-4H-l-benzopyran-2-carboxylic acid, reference compound]: in assay [1], the “reduction in the skin wheal size” value came to 88%. Further, in assay [2], the inhibition is given as 98% and the oral activity result was “inactive”. Besides, in assay [4], the oral activity result was “inactive”.
For the compound `CC(C)c1ccc2nc3sc(C(=O)NCCCCc4cccnc4)cn3c(=O)c2c1` [Example 3, 7-(1-Methylethyl)-5-oxo-N-[4-(3-pyridinyl)butyl]-5H-thiazolo[2,3-b]quinazoline-2-carboxamide], in assay [1], the “reduction in the skin wheal size” value worked out at 35% and the “Rat Skin Permeability % Inhibition (10mg/kg iv)” value was determined as 35%. Further, in assay [2], the inhibition is recorded as 68%, the “Guinea Pig Broncho-constriction % Inhibition (10 mg/kg i.v.)” value came out at 68% and the oral activity result is on record as “active”. Also, in assay [4], the oral activity entry was “active”.
Regarding `CC(C)c1ccc2nc3sc(C(=O)NCCCCn4ccnc4)cn3c(=O)c2c1` [Example 6, N-[4-(1H-Imidazol-1-yl)butyl]-7-(1-methylethyl)-5-oxo-5H-thiazolo[2,3-b]quinazoline-2-carboxamide dihydrochloride 0.45 molar hydrate], in assay [1], the “reduction in the skin wheal size” value was found to be 61% and the “Rat Skin Permeability % Inhibition (10mg/kg iv)” value is listed as 61%. For the same compound, in assay [2], the inhibition is given as 85%, the “Guinea Pig Broncho-constriction % Inhibition (10 mg/kg i.v.)” value stood at 85% and the oral activity entry is on record as “active”. In addition, the ED50 in assay [2] (Cavia porcellus, po, read-out: Guinea Pig Broncho-constriction ID50) came out at 51 mg/kg. Besides, the “Rat Skin Permeability ID50” value in assay [4] (iv) stood at 10 mg/kg. For the same compound, in assay [4] (po), the “Rat Skin Permeability ID50” value was 55 mg/kg. Also, the oral activity entry in assay [4] was “active”.
For the compound `CCN(CC)CCOC(=O)c1cn2c(=O)c3cc(SC)ccc3nc2s1.Cl` [Example 17, 7-(Methylthio)-5-oxo-5H-thiazolo[2,3-b]quinazoline-2-carboxylic acid (2-diethylaminoethyl) ester hydrochloride], in assay [3], the “Rat PCA Test (% Inhibition) 16 mg/kg ip” value is 52%, the “Rat PCA Test (% Inhibition) 32 mg/kg po” value was 100% and the ED50 worked out at 2.85 mg/kg.
In the case of `CC(C)c1cc(C(C)C)c2nc3sc(C(=O)NCCCCc4cccnc4)cn3c(=O)c2c1` [the 2nd table, row 8, 7,9-bis(1-methylethyl)-5-oxo-N-[4-(3-pyridinyl)butyl]-5H-thiazolo[2,3-b]quinazoline-2-carboxamide], in assay [1], the “Rat Skin Permeability % Inhibition (10mg/kg iv)” value was found to be 38%.
